Source: the NIST ThermoML archive (doi:10.1021/je800021r)
Several values for one entry are separate records, joined by “and”; a condition that tells them apart may be missing. Equal values may be shown once. ± gives the expanded uncertainty stated by the source.

Conditions: Liquid, Ebulliometric method (Recirculating still)

Row | SMILES | vapor or sublimation pressure (364.5 K) [kPa] | vapor or sublimation pressure (364.51 K) | vapor or sublimation pressure (364.52 K) [kPa]
1 | CC(C)(C)O [2-methylpropan-2-ol] | 142.6 ± 1.5 |  | 
2 | CC(C)C [2-methylpropane] | 1685.6 ± 7.4 | 1686.4 ± 7.4 kPa and 1686.3 ± 7.4 kPa | 1686.3 ± 7.4
3 | CCC(C)O (configuration not stated) [butan-2-ol] |  | 74.1 ± 1.4 kPa | 

More lines, now with the values ahead:

Row | vapor or sublimation pressure (364.5 K) [kPa] | vapor or sublimation pressure (364.51 K) | vapor or sublimation pressure (364.52 K) [kPa] | SMILES
4 |  | 267.5 ± 1.8 kPa |  | CO [methanol]
5 |  | 144.2 ± 1.5 kPa |  | CC(C)O [propan-2-ol]
